Reference: PMC6017062, “Probing the Inhibitor versus Chaperone Properties of sp^2-Iminosugars towards Human β-Glucocerebrosidase: A Picomolar Chaperone for Gaucher Disease” (Molecules : A Journal of Synthetic Chemistry and Natural …, 2018)
Like-named read-outs stand apart in the source and are kept apart here.

Legend:
[1] = target: T1, human β-glucocerebrosidase (GCase) (Homo sapiens, UniProt P04062, R534H); test: Purified recombinant human GCase inhibition in vitro; assay type: biochemical; settings: for Ki: purified recombinant enzyme (Cerezyme), 4-MU glucopyranoside substrate
T1 construct: purchased Genzyme (Genzyme Japan, Tokyo, Japan) / Sanofi Genzyme, Cambridge, MA, USA Cerezyme
T1 sequence (P04062 40-536 R534H): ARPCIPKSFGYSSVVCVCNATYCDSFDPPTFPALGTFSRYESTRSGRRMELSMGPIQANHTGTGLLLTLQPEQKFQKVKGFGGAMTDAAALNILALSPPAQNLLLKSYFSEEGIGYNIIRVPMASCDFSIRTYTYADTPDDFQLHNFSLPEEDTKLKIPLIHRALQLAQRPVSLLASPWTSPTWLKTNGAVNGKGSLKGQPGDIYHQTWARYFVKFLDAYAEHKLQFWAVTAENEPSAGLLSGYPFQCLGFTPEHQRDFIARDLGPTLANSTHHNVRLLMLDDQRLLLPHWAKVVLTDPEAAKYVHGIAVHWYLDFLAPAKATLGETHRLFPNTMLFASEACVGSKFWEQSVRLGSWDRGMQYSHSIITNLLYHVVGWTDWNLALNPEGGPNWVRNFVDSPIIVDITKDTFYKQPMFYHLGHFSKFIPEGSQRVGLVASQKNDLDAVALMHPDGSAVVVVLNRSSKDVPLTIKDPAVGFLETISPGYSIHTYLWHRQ
Method: Comparative assessment of the inhibition abilities of 1–4 against human lysosomal glycosidases in cell lysates (in vitro enzyme assay; see Experimental Section) confirmed the selectivity pattern previously observed for the commercial enzymes: whereas GCase was responsive to μM concentrations of the sp^2-iminosugars, the activity of lysosomal α-glucosidase, α- and β-galactosidases, α- and β-mannosidases, and hexosaminidase was not affected at concentrations of up to 200 μM. The corresponding Ki values were determined at pH 7 and 5 using purified recombinant human GCase and 4-methylumbelliferone (4-MU)-conjugated […] as the substrate (Table 2).
GCase activities were determined as above using purified human GCase, obtained from Genzyme (Genzyme Japan, Tokyo, Japan) in 0.1 M citrate buffer at pH 5 or pH 7 and 4-methylumbelliferone (4-MU)-conjugated β-D-glucopyranoside as the substrate. The reactions were terminated by adding 0.2 mL of 0.2 M glycine sodium hydroxide buffer (pH 10.7). The liberated 4-methylumbelliferone was measured in a black-well plate with a Perkin Elmer Luminescence Spectrometer, Waltham, MA, USA (excitation wavelength: 340 nm; emission: 460 nm).

[2] = target: T2, α-galactosidase from green coffee beans (α-Galase) (Coffea arabica, UniProt Q42656); test: Commercial glycosidase inhibition: α-galactosidase from green coffee beans (α-Galase); assay type: biochemical; settings: mean ± SD, three determinations; competitive; n.i. = no inhibition detected at 1 mM
T2 construct: purchased
From the text: We first evaluated the inhibitory properties of the new nonreducing mono- and bicyclic sp^2-iminosugars 4–15 against a panel of commercial glycosidases that included the α-glucosidases maltase (yeast maltase; α-Glcase1) and isomaltase (α-Glcase2) from Saccharomyces cerevisiae and amyloglucosidase (α-Glcase3) from Aspergillus niger, the β-glucosidases from almonds (β-Glcase1) and bovine liver (β-Glcase2), the α-galactosidase from green coffee beans (α-Galase), the β-galactosidase from Escherichia coli (β-Galase), and the α-mannosidase from Jack bean (α-Manase).
Inhibition constant (Ki) values were determined by spectrophotometrically measuring the residual hydrolytic activities of the glycosidases against the respective o- (for β-galactosidase from E. coli) or p-nitrophenyl α- or β-D-glycopyranoside (for other glycosidases) in the presence of the iminosugars. Each assay was performed in phosphate buffer or phosphate-citrate buffer (for α- or β-mannosidase and amyloglucosidase) at the optimal pH for the enzymes. The reactions were initiated by addition of the enzyme to a solution of the substrate in the absence or presence of various inhibitor concentrations. The mixture was incubated for 10–30 min at 37 °C or 55 °C (for amyloglucosidase) and the reaction was quenched by addition of 1 M Na2CO3. Reaction times were appropriate to obtain 10–20% conversion of the substrate in order to achieve linear rates. The absorbance of the resulting mixture was determined at 405 nm. Approximate value of Ki was determined from the slope of Dixon plots using a fixed concentration of substrate (around the Km value for the different glycosidases) and various concentrations of inhibitor. Full Ki determinations and enzyme inhibition mode were determined from the slope of Lineweaver–Burk plots and double reciprocal analysis.

T2 sequence (Q42656 16-378): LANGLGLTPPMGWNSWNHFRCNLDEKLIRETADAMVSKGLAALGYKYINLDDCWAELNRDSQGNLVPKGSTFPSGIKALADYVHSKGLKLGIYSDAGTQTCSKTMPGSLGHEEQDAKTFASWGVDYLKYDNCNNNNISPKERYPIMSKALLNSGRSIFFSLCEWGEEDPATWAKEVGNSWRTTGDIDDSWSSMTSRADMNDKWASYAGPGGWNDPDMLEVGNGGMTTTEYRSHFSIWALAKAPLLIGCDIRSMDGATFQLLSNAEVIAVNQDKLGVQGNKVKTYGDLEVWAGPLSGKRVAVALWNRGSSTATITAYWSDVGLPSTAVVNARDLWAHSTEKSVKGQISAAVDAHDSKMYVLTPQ

For `CCCCCCCCN=C1SCC2C(O)C(O)C(O)CN12` (stereo not drawn) [Compound 4, 1-Deoxy-6-thio-5-N,6-S-(N′-octyliminomethylidene)nojirimycin], the “fold stronger GCase inhibition of nonreducing vs reducing partner” value ([1]; 3 vs 1, 4 vs 2) was about 20 fold, the “fold enhancement of GCase inhibition potency upon replacement of O-6 by sulfur, pH 5” value ([1]; pH 5, 2 vs 1, 4 vs 3) was 107 fold and the Ki ([1]; pH 5, read-out: Ki human GCase, pH 5) was 59 ± 3.5 nM. The “fold enhancement of GCase inhibition potency upon replacement of O-6 by sulfur, pH 7” value ([1]; pH 7, 2 vs 1, 4 vs 3) was 130 fold, the Ki ([1]; pH 7, read-out: Ki human GCase, pH 7) was 13 ± 1.1 nM and the “Ki α-Galase” value [2] was “n.i”.
